# In patent US10774385B2, “Method of determining risk of 5-fluorouracil toxicity” (Oxford University Innovation Limited, priority 2014, dated 2020):
# What was measured:
# [1] = cited from earlier work
# [2] = QUASAR2 trial: FU-related adverse events of capecitabine +/- bevacizumab graded by NCI CTCAE v3.0; format: in vivo, human
# Method: The QUASAR2 study (http://www.octo-oxford.org.uk/alltrials/infollowup/q2.html; http://www.controlled-trials.com/ISRCTN45133151/) is a phase III randomised controlled trial of adjuvant capecitabine (Xeloda) (1250 mg/m2 twice daily d1-14 every 3 weeks, total of 8 cycles) +/−bevacizumab (7.5 mg/kg every three weeks) following resection of stage II/III CRC. Patients were entered into the study between July 2005 and December 2011 at 123 UK and 81 non-UK sites. Of 1119 patients with blood collected as of July 2010, 1046 were selected for study based on availability of clinical data and informed consent.
# Adverse events were graded following each treatment cycle using the NCI Common Toxicity Criteria for Adverse Events (CTCAE) version 3.0. Common FU-related toxicities—diarrhea, nausea and vomiting, mucositis/stomatitis, neutropaenia, thrombocytopaenia, and HFS—were analysed individually and also in combination as “global” toxicity. Adverse events were categorised as low (CTCAE grade 0/1/2) and high (CTCAE grade 3/4/5 at any treatment cycle). Hypertension and proteinuria were clearly related to bevacizumab (˜10-fold higher incidence) and were not included in the analysis.
# The QUASAR2 study was used as described in Example 1(a)(i). Of 1,119 patients with blood collected as of July 2010, 1,046 were selected for genetic study based on completeness of clinical data and informed consent.
# Toxicity phenotype data were collected as part of QUASAR2 according the NCI Common Toxicity Criteria for Adverse Events (CTCAE) version 3.0. Maximum toxicity (0-4) at any treatment cycle was derived for each of the following individual FU-related toxicities: diarrhea, nausea and vomiting, mucositis/stomatitis, neutropaenia, thrombocytopaenia and HFS. A global measure of toxicity was derived, defined as the maximum individual toxicity score measured for each patient. Global and individual toxicities were analysed using two approaches: (i) a binary classification into low toxicity (grade 0-2) versus high (dose-limiting) toxicity (grade 3-4); and (ii) a quantitative measure of toxicity. In the latter, if <100 patients experienced a particular grade of toxicity, these patients were combined into a single bin with an adjacent grade. Specifically, grades 01v2v34 for global, diarrhea and HFS and 0v1234 for the other, rarer toxicity phenotypes were analysed.
# [3] = Spanish Capecitabine Pharmacogenetic (SCP) Study: diarrhea and HFS by CTCAE v3.0; format: in vivo, human; conditions: capecitabine monotherapy
# Method: Two additional data sets were used for validation of toxicity associations. The Spanish Capecitabine Pharmacogenetic (SCP) Study consisted of 233 colorectal and breast cancer patients prospectively recruited through several oncology units in Spain and treated with one of two capecitabine monotherapy regimens (standard: 1250 mg/m^2 twice daily d1-14 every 3 weeks; continuous: 800 mg/m^2 orally every 12 hours daily). HFS and diarrhea data Table 4 were collected according to CTCAEv3.0.
# [4] = human, in vivo, 8 cycles of 3 weeks
# [5] = patients selected for high and low toxicity
structure (smiles),measurement,setting,value
"O=c1[nH]cc(F)c(=O)[nH]1 [FU, 5-fluorouracil]","Patients suffering substantial toxicities (Grade 3 or above, CTCAE v3.0)","[1]; FU chemotherapy, background statement",10-30%
same,"Mortality (Grade 5, CTCAE v3.0) associated with FU use","[1]; overall, literature",0.5-1.0%
"CCCCCOC(=O)Nc1nc(=O)n(C2OC(C)C(O)C2O)cc1F (stereo not drawn) [capecitabine, pentyl [1-(3,4-dihydroxy-5-methyltetrahydrofuran-2-yl)-5-fluoro-2-oxo-1H-pyrimidin-4-yl]carbamate]",Toxicity-induced deaths in QUASAR2,"[2]; QUASAR2, patients with grade 4 myelotoxicity",two
same,"Patients, Global adverse event, CTCAE grade 0",[2]; [4],75
same,"Patients, Global adverse event, CTCAE grade 1",[2]; [4],241
same,"Patients, Global adverse event, CTCAE grade 2",[2]; [4],375
same,"Patients, Global adverse event, CTCAE grade 3",[2]; [4],334
same,"Patients, Neutropaenia, CTCAE grade 0",[2]; [4],921
same,"Patients, Neutropaenia, CTCAE grade 1",[2]; [4],71
same,"Patients, Neutropaenia, CTCAE grade 2",[2]; [4],28
same,"Patients, Neutropaenia, CTCAE grade 3",[2]; [4],17
same,"Patients, Thrombocytopaenia, CTCAE grade 0",[2]; [4],961
same,"Patients, Thrombocytopaenia, CTCAE grade 1",[2]; [4],67
same,"Patients, Thrombocytopaenia, CTCAE grade 2",[2]; [4],9
same,"Patients, Thrombocytopaenia, CTCAE grade 3",[2]; [4],0
same,"Patients, Thrombocytopaenia, CTCAE grade 4",[2]; [4],4
same,"Patients, Vomiting, CTCAE grade 3",[2]; [4],12
same,"Patients, Vomiting, CTCAE grade 4",[2]; [4],3
same,"Patients, Diarrhoea, CTCAE grade 0","[2]; human, in vivo, 24 weeks",370
same,"Patients, Diarrhoea, CTCAE grade 1","[2]; human, in vivo, 24 weeks",388
same,"Patients, Diarrhoea, CTCAE grade 2","[2]; human, in vivo, 24 weeks",175
same,"Patients, Diarrhoea, CTCAE grade 3","[2]; human, in vivo, 24 weeks",99
same,"Patients, Diarrhoea, CTCAE grade 4","[2]; human, in vivo, 24 weeks",10
same,"Patients, Global adverse event, CTCAE grade 4","[2]; human, in vivo, 24 weeks",19
same,"Patients, Handfoot, CTCAE grade 0","[2]; human, in vivo, 24 weeks",176
same,"Patients, Handfoot, CTCAE grade 1","[2]; human, in vivo, 24 weeks",287
same,"Patients, Handfoot, CTCAE grade 2","[2]; human, in vivo, 24 weeks",331
same,"Patients, Handfoot, CTCAE grade 3","[2]; human, in vivo, 24 weeks",246
same,"Patients, Handfoot, CTCAE grade 4","[2]; human, in vivo, 24 weeks",1
same,"Patients, Mucositis, CTCAE grade 0","[2]; human, in vivo, 24 weeks",734
same,"Patients, Mucositis, CTCAE grade 1","[2]; human, in vivo, 24 weeks",248
same,"Patients, Mucositis, CTCAE grade 2","[2]; human, in vivo, 24 weeks",49
same,"Patients, Mucositis, CTCAE grade 3","[2]; human, in vivo, 24 weeks",11
same,"Patients, Mucositis, CTCAE grade 4","[2]; human, in vivo, 24 weeks",0
same,"Patients, Stomatitis, CTCAE grade 0","[2]; human, in vivo, 24 weeks",718
same,"Patients, Stomatitis, CTCAE grade 1","[2]; human, in vivo, 24 weeks",244
same,"Patients, Stomatitis, CTCAE grade 2","[2]; human, in vivo, 24 weeks",67
same,"Patients, Stomatitis, CTCAE grade 3","[2]; human, in vivo, 24 weeks",11
same,"Patients, Stomatitis, CTCAE grade 4","[2]; human, in vivo, 24 weeks",1
same,"Patients, Vomiting, CTCAE grade 0","[2]; human, in vivo, 24 weeks",817
same,"Patients, Vomiting, CTCAE grade 1","[2]; human, in vivo, 24 weeks",134
same,"Patients, Vomiting, CTCAE grade 2","[2]; human, in vivo, 24 weeks",74
same,Share of capecitabine patients suffering dose-limiting levels of drug-induced adverse events,[1]; background statement,approximately one third
same,Mortality from rapid-onset toxicity relative to infusional and bolus 5-FU regimens (0.5% to 2%),"[1]; capecitabine schedules, literature",about half that number
same,"Patients, Diarrhoea, highest CTCAE grade reported during treatment: 0","[3]; 233 colorectal and breast cancer patients, selected for high and low toxicity",143
same,"Patients, Diarrhoea, highest CTCAE grade reported during treatment: 1",[3]; [5],23
same,"Patients, Diarrhoea, highest CTCAE grade reported during treatment: 2",[3]; [5],17
same,"Patients, Diarrhoea, highest CTCAE grade reported during treatment: 3",[3]; [5],32
same,"Patients, Diarrhoea, highest CTCAE grade reported during treatment: 4",[3]; [5],4
same,"Patients, Handfoot, highest CTCAE grade reported during treatment: 0",[3]; [5],85
same,"Patients, Handfoot, highest CTCAE grade reported during treatment: 1",[3]; [5],28
same,"Patients, Handfoot, highest CTCAE grade reported during treatment: 2",[3]; [5],30
same,"Patients, Handfoot, highest CTCAE grade reported during treatment: 3",[3]; [5],86
same,"Patients, Handfoot, highest CTCAE grade reported during treatment: 4",[3]; [5],2
